ChEMBL document CHEMBL4145445, “Design, synthesis and biological assessment of new thiazolylhydrazine derivatives as selective and reversible hMAO-A inhibitors” (Eur J Med Chem, 2018)
Blank lines part the entries; values can stand above or below the compound they belong to.

Key:
[1] = target: T1, Amine oxidase [flavin-containing] B (Homo sapiens, UniProt P27338); test: Inhibition of human MAO-B using tyramine hydrochloride as substrate after 30 mins by Amplex Red reagent based horseradish peroxidase enzyme-coupled fluorescence assay
T1 sequence (P27338 whole entry): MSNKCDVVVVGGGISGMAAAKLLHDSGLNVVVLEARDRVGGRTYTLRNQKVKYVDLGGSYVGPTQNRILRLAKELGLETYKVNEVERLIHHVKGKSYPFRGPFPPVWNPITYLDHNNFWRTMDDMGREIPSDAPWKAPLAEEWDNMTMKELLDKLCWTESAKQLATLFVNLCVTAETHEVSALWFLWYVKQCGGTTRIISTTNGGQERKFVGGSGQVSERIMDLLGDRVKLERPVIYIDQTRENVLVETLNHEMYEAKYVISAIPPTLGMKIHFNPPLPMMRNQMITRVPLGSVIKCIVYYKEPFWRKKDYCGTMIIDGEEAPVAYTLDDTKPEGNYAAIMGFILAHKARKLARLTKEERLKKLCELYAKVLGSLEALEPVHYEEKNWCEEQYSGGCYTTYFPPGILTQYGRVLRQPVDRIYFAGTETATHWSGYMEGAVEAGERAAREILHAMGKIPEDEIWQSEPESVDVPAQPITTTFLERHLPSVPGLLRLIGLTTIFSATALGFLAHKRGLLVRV

[2] = target: T2, Amine oxidase [flavin-containing] A (Homo sapiens, UniProt P21397); test: Inhibition of human MAO-A using tyramine hydrochloride as substrate after 30 mins by Amplex Red reagent based horseradish peroxidase enzyme-coupled fluorescence assay
T2 sequence (P21397 whole entry): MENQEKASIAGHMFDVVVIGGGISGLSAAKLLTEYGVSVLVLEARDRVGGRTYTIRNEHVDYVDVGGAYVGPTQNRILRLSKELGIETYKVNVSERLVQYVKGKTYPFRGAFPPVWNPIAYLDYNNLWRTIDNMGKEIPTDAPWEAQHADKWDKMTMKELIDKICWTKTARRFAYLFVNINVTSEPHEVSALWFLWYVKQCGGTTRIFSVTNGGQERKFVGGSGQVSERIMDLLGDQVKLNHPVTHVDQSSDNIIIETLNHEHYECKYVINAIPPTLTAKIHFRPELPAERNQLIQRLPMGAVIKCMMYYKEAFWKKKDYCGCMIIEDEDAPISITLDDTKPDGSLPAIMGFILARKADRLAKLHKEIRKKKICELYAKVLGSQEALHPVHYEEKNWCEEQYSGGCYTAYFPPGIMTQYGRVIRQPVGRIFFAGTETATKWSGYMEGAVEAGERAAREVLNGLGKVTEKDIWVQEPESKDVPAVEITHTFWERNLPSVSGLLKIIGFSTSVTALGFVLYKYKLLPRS

[3] = target: T1, Amine oxidase [flavin-containing] B; test: Inhibition of human MAO-B at 10^-4 to 10^-3 M using tyramine hydrochloride as substrate after 30 mins by Amplex Red reagent based horseradish peroxidase enzyme-coupled fluorescence assay relative to control; conditions: 0.5 h
Homo sapiens = organism: Homo sapiens; test: Selectivity index, ratio of IC50 for human MAO-B to IC50 for human MAO-A
[4] = target: T2, Amine oxidase [flavin-containing] A; test: Inhibition of human MAO-A at 10^-4 to 10^-3 M using tyramine hydrochloride as substrate after 30 mins by Amplex Red reagent based horseradish peroxidase enzyme-coupled fluorescence assay relative to control; conditions: 0.5 h
Salmonella typhimurium [5] = test: Genotoxicity in Salmonella typhimurium TA98 assessed as increase in revertant colonies at 0.156 mg/ml in presence of Sprague-Dawley rat liver S9 fraction by Ames test relative to basal level; format: toxicity, organism-based; conditions: salmonella enterica subsp. enterica serovar typhimurium
Salmonella typhimurium [6] = test: Genotoxicity in Salmonella typhimurium TA100 assessed as increase in revertant colonies at 0.3125 mg/ml in absence of Sprague-Dawley rat liver S9 fraction by Ames test relative to basal level; format: toxicity, organism-based; conditions: salmonella enterica subsp. enterica serovar typhimurium
Salmonella typhimurium [7] = test: Genotoxicity in Salmonella typhimurium TA98 assessed as increase in revertant colonies at 0.625 mg/ml in absence of Sprague-Dawley rat liver S9 fraction by Ames test relative to basal level; format: toxicity, organism-based; conditions: salmonella enterica subsp. enterica serovar typhimurium
Salmonella typhimurium [8] = test: Genotoxicity in Salmonella typhimurium TA100 assessed as increase in revertant colonies at 2.5 mg/ml in presence of Sprague-Dawley rat liver S9 fraction by Ames test relative to basal level; format: toxicity, organism-based; conditions: salmonella enterica subsp. enterica serovar typhimurium
Salmonella typhimurium [9] = test: Genotoxicity in Salmonella typhimurium TA98 assessed as increase in revertant colonies at 5 mg/ml in presence of Sprague-Dawley rat liver S9 fraction by Ames test relative to basal level; format: toxicity, organism-based; conditions: salmonella enterica subsp. enterica serovar typhimurium
Salmonella typhimurium [10] = test: Genotoxicity in Salmonella typhimurium TA98 assessed as increase in revertant colonies at 1.25 mg/ml in absence of Sprague-Dawley rat liver S9 fraction by Ames test relative to basal level; format: toxicity, organism-based; conditions: salmonella enterica subsp. enterica serovar typhimurium
Salmonella typhimurium [11] = test: Genotoxicity in Salmonella typhimurium TA100 assessed as increase in revertant colonies at 0.625 mg/ml in absence of Sprague-Dawley rat liver S9 fraction by Ames test relative to basal level; format: toxicity, organism-based; conditions: salmonella enterica subsp. enterica serovar typhimurium
Salmonella typhimurium [12] = test: Genotoxicity in Salmonella typhimurium TA100 assessed as increase in revertant colonies at 2.5 mg/ml in absence of Sprague-Dawley rat liver S9 fraction by Ames test relative to basal level; format: toxicity, organism-based; conditions: salmonella enterica subsp. enterica serovar typhimurium
Salmonella typhimurium [13] = test: Genotoxicity in Salmonella typhimurium TA100 assessed as increase in revertant colonies at 0.156 mg/ml in absence of Sprague-Dawley rat liver S9 fraction by Ames test relative to basal level; format: toxicity, organism-based; conditions: salmonella enterica subsp. enterica serovar typhimurium
Salmonella typhimurium [14] = test: Genotoxicity in Salmonella typhimurium TA98 assessed as increase in revertant colonies at 0.3125 mg/ml in absence of Sprague-Dawley rat liver S9 fraction by Ames test relative to basal level; format: toxicity, organism-based; conditions: salmonella enterica subsp. enterica serovar typhimurium
Salmonella typhimurium [15] = test: Genotoxicity in Salmonella typhimurium TA100 assessed as increase in revertant colonies at 5 mg/ml in absence of Sprague-Dawley rat liver S9 fraction by Ames test relative to basal level; format: toxicity, organism-based; conditions: salmonella enterica subsp. enterica serovar typhimurium
NIH3T3 = test: Cytotoxicity against mouse NIH/3T3 cells by MTT assay; format: cell-based
Salmonella typhimurium [16] = test: Genotoxicity in Salmonella typhimurium TA100 assessed as increase in revertant colonies at 1.25 mg/ml in absence of Sprague-Dawley rat liver S9 fraction by Ames test relative to basal level; format: toxicity, organism-based; conditions: salmonella enterica subsp. enterica serovar typhimurium
Salmonella typhimurium [17] = test: Genotoxicity in Salmonella typhimurium TA98 assessed as increase in revertant colonies at 5 mg/ml in absence of Sprague-Dawley rat liver S9 fraction by Ames test relative to basal level; format: toxicity, organism-based; conditions: salmonella enterica subsp. enterica serovar typhimurium
Salmonella typhimurium [18] = test: Genotoxicity in Salmonella typhimurium TA100 assessed as increase in revertant colonies at 0.625 mg/ml in presence of Sprague-Dawley rat liver S9 fraction by Ames test relative to basal level; format: toxicity, organism-based; conditions: salmonella enterica subsp. enterica serovar typhimurium
Salmonella typhimurium [19] = test: Genotoxicity in Salmonella typhimurium TA100 assessed as increase in revertant colonies at 5 mg/ml in presence of Sprague-Dawley rat liver S9 fraction by Ames test relative to basal level; format: toxicity, organism-based; conditions: salmonella enterica subsp. enterica serovar typhimurium
Salmonella typhimurium [20] = test: Genotoxicity in Salmonella typhimurium TA100 assessed as increase in revertant colonies at 0.3125 mg/ml in presence of Sprague-Dawley rat liver S9 fraction by Ames test relative to basal level; format: toxicity, organism-based; conditions: salmonella enterica subsp. enterica serovar typhimurium
Salmonella typhimurium [21] = test: Genotoxicity in Salmonella typhimurium TA98 assessed as increase in revertant colonies at 2.5 mg/ml in presence of Sprague-Dawley rat liver S9 fraction by Ames test relative to basal level; format: toxicity, organism-based; conditions: salmonella enterica subsp. enterica serovar typhimurium
[22] = target: T2, Amine oxidase [flavin-containing] A; test: Reversible-competitive inhibition of human MAO-A using varying levels of tyramine as substrate after 30 mins by Lineweaver-Burk plot
Salmonella typhimurium [23] = test: Genotoxicity in Salmonella typhimurium TA98 assessed as increase in revertant colonies at 0.625 mg/ml in presence of Sprague-Dawley rat liver S9 fraction by Ames test relative to basal level; format: toxicity, organism-based; conditions: salmonella enterica subsp. enterica serovar typhimurium
Salmonella typhimurium [24] = test: Genotoxicity in Salmonella typhimurium TA98 assessed as increase in revertant colonies at 0.3125 mg/ml in presence of Sprague-Dawley rat liver S9 fraction by Ames test relative to basal level; format: toxicity, organism-based; conditions: salmonella enterica subsp. enterica serovar typhimurium
Salmonella typhimurium [25] = test: Genotoxicity in Salmonella typhimurium TA100 assessed as increase in revertant colonies at 1.25 mg/ml in presence of Sprague-Dawley rat liver S9 fraction by Ames test relative to basal level; format: toxicity, organism-based; conditions: salmonella enterica subsp. enterica serovar typhimurium
Salmonella typhimurium [26] = test: Genotoxicity in Salmonella typhimurium TA100 assessed as increase in revertant colonies at 0.156 mg/ml in presence of Sprague-Dawley rat liver S9 fraction by Ames test relative to basal level; format: toxicity, organism-based; conditions: salmonella enterica subsp. enterica serovar typhimurium
Salmonella typhimurium [27] = test: Genotoxicity in Salmonella typhimurium TA98 assessed as increase in revertant colonies at 1.25 mg/ml in presence of Sprague-Dawley rat liver S9 fraction by Ames test relative to basal level; format: toxicity, organism-based; conditions: salmonella enterica subsp. enterica serovar typhimurium
Salmonella typhimurium [28] = test: Genotoxicity in Salmonella typhimurium TA98 assessed as increase in revertant colonies at 0.156 mg/ml in absence of Sprague-Dawley rat liver S9 fraction by Ames test relative to basal level; format: toxicity, organism-based; conditions: salmonella enterica subsp. enterica serovar typhimurium
Salmonella typhimurium [29] = test: Genotoxicity in Salmonella typhimurium TA98 assessed as increase in revertant colonies at 2.5 mg/ml in absence of Sprague-Dawley rat liver S9 fraction by Ames test relative to basal level; format: toxicity, organism-based; conditions: salmonella enterica subsp. enterica serovar typhimurium

Structure (SMILES): N#Cc1ccc(-c2csc(N/N=C/c3ccc(N4CCCC4)cc3)n2)cc1
IC50 [1]: 53.1 µM | IC50 [2]: 66.3 µM | inhibition (INH) [3]: > 50% | Ratio IC50 (Homo sapiens): 0.8 | inhibition (INH) [4]: > 50%

Structure (SMILES): C(=N\Nc1nc(-c2ccccc2)cs1)/c1ccc(N2CCCC2)cc1
IC50 [1]: > 1000 µM | IC50 [2]: 25.6 µM | Ratio IC50 (Homo sapiens): > 39.1 | inhibition (INH) [4]: > 50%

Structure (SMILES): Brc1ccc(-c2csc(N/N=C/c3ccc(N4CCCC4)cc3)n2)cc1
IC50 [1]: > 1000 µM | IC50 [2]: 61.3 µM | Ratio IC50 (Homo sapiens): > 16.3 | inhibition (INH) [4]: > 50%

Structure (SMILES): Fc1ccc(-c2csc(N/N=C/c3ccc(N4CCCC4)cc3)n2)cc1
IC50 [1]: 426 µM | IC50 [2]: 13.1 µM | inhibition (INH) [3]: > 50% | Ratio IC50 (Homo sapiens): 32.5 | inhibition (INH) [4]: > 50%

The next lines start with results.

IC50 [1]: 133 µM | IC50 [2]: 85.4 µM | inhibition (INH) [3]: > 50% | Ratio IC50 (Homo sapiens): 1.56 | inhibition (INH) [4]: > 50%
Structure (SMILES): Clc1ccc(-c2csc(N/N=C/c3ccc(N4CCOCC4)cc3)n2)c(Cl)c1

IC50 [1]: > 1000 µM | IC50 [2]: 10.4 µM | Ratio IC50 (Homo sapiens): > 96.2 | inhibition (INH) [4]: > 50%
Structure (SMILES): Cc1ccc(-c2csc(N/N=C/c3ccc(N4CCOCC4)cc3)n2)cc1

IC50 [1]: 141 µM | IC50 [2]: 15.6 µM | inhibition (INH) [3]: > 50% | Ratio IC50 (Homo sapiens): 9.03 | inhibition (INH) [4]: > 50%
Structure (SMILES): Fc1ccc(-c2csc(N/N=C/c3ccc(N4CCCC4)cc3)n2)c(F)c1

IC50 [1]: 17.6 µM | IC50 [2]: 0.011 µM | inhibition (INH) [3]: > 50% | Ratio IC50 (Homo sapiens): 1600 | inhibition (INH) [4]: > 50% | Ki [22]: 4.4 nM
Structure (SMILES): Fc1ccc(-c2csc(N/N=C/c3ccc(N4CCOCC4)cc3)n2)c(F)c1
fold change (FC) (Salmonella typhimurium [5]): 1.34 | fold change (FC) (Salmonella typhimurium [6]): 1 | fold change (FC) (Salmonella typhimurium [7]): 0.5 | fold change (FC) (Salmonella typhimurium [8]): 1.14 | fold change (FC) (Salmonella typhimurium [9]): 0.36 | fold change (FC) (Salmonella typhimurium [10]): 0.5 | fold change (FC) (Salmonella typhimurium [11]): 0.61 | fold change (FC) (Salmonella typhimurium [12]): 0.22 | fold change (FC) (Salmonella typhimurium [13]): 0.61 | fold change (FC) (Salmonella typhimurium [14]): 0.59 | fold change (FC) (Salmonella typhimurium [15]): 0.33 | IC50 (NIH3T3): > 1 mM | fold change (FC) (Salmonella typhimurium [16]): 0.45 | fold change (FC) (Salmonella typhimurium [17]): 0.64 | fold change (FC) (Salmonella typhimurium [18]): 1.4 | fold change (FC) (Salmonella typhimurium [19]): 1.08 | fold change (FC) (Salmonella typhimurium [20]): 1.4 | fold change (FC) (Salmonella typhimurium [21]): 0.45 | fold change (FC) (Salmonella typhimurium [23]): 1.34 | fold change (FC) (Salmonella typhimurium [24]): 1.07 | fold change (FC) (Salmonella typhimurium [25]): 1.59 | fold change (FC) (Salmonella typhimurium [26]): 1.08 | fold change (FC) (Salmonella typhimurium [27]): 2.5 | fold change (FC) (Salmonella typhimurium [28]): 0.5 | fold change (FC) (Salmonella typhimurium [29]): 0.3
